Entries after “also recorded” stand apart in the source; their conditions may differ.
Legend:
[1] = Hexapeptide aggregative properties; assay type: physicochemical; details: for Aggregation properties, in words: 800 μM (16p: 288 μM)
[2] = assay type: physicochemical; details: 800 μM
[3] = Negative staining transmission electron microscopy of peptide structures; assay type: physicochemical; details: for Structure (TEM): negative staining, 1% uranyl acetate; for Diameter / Structures comments / Pitch length / Width / Diameter, Tight / Diameter, Wide: negative staining TEM
[4] = Cryo-EM of peptide sample; assay type: physicochemical; details: data not shown
[5] = Critical assembly concentration; assay type: physicochemical; details: sedimentable versus total peptide concentration
[6] = Reversibility of polymerized structures by dilution; assay type: physicochemical; details: polymerized at 2x Cr, diluted 8-fold to 0.25 Cr
[7] = Hexapeptide amyloidogenicity; assay type: physicochemical; details: 800 μM (16p: 288 μM)
[8] = Solubility of hexapeptides in water; assay type: physicochemical; details: deionized water

Substance	Aggregation properties, in words [1]	Classification of the peptide (aggregative / amyloid / soluble), in words [2]	Structure (TEM) [3]	Structures comments [3]	other results
IKQVYV [5p]	very weak	entirely soluble; also recorded: non-aggregative	–	–	–
IYVQKV [9p]	no	entirely soluble; also recorded: non-aggregative	crystal structures	–	Structures seen by Cryo-EM [4]: absence of structures
KQIVYV [20p]	–	aggregative	fibrillar structures; also recorded: Filament/strand bundles	Homogeneous / bundles	Diameter [3]: 13 ± 2 nm
KVQIVY [10p]	–	aggregative	structures resembling ribbons; also recorded: Rather flat and tight ribbons	Heterogeneous	–
KVQYVI [14p]	no	entirely soluble	–	–	–
KYIQVV [2p]	–	aggregative; also recorded: strong aggregation potential	structures resembling ribbons; also recorded: Ribbons/ Filaments	–	Diameter [3]: 10 ± 2 nm
KYVIQV [15p]	–	aggregative; also recorded: strong aggregation potential	structures resembling ribbons; also recorded: Twisted ribbons	Rather homogeneous	Slope of the Cr linear regression [5]: 1.1; Reversion of structures after dilution, in words [6]: only partial; Pitch length [3]: 196 ± 34 nm; Width [3]: 21 ± 2 nm
QKVVYI [18p]	–	amyloid	fibrillar structures	Heterogeneous	Slope of the Cr linear regression [5]: 0.84; Reversion of structures after dilution, in words [6]: almost total reversion; Diameter, Tight [3]: 9 nm; Diameter, Wide [3]: 18 nm; Pitch length [3]: 107 ± 14 nm; Width [3]: 29 ± 7 nm; Structure (TEM) ([3]; listed as 18p*): Twisted ribbons/fibers
QKVYIV [19p]	–	aggregative	fibrillar structures; also recorded: Tangle ribbons	Few twists and bundles	Width [3]: 11± 3 nm
QKYIVV [8p]	no	entirely soluble	–	–	–
QVIKYV [23p]	very weak	entirely soluble; also recorded: non-aggregative	–	–	–
VKVIYQ [7p]	–	aggregative; also recorded: strong aggregation potential	fibrillar structures; also recorded: Twisted fibers	Homogeneous perpendicular breaks	Amyloidogenicity by Thioflavin T fluorescence, in words [7]: without fluorescence; Diameter [3]: 17 ± 4 nm; Pitch length [3]: 138 ± 12 nm
VKVYIQ [11p]	–	amyloid; also recorded: amyloidogenic character	fibrillar structures	–	Slope of the Cr linear regression [5]: 0.74; Reversion of structures after dilution, in words [6]: almost total reversion; Diameter [3]: 5 ± 1 nm; Structure (TEM) ([3]; listed as 11p*): Stringy filaments/fibers
VKYQVI [3p]	very weak	entirely soluble; also recorded: non-aggregative	–	–	–
VQIVYK [ß1, reference compound]	–	–	fibrillar structures	Rather homogeneous	Diameter [3]: 9 ± 2 nm; Pitch length [3]: 105 ± 20 nm; Diameter ([3]; listed as β1): ~10 nm; Pitch length ([3]; listed as β1): ~100 nm; Structure (TEM) ([3]; listed as ß1*): Double/Twisted fibers
VQKIYV [4p]	no	entirely soluble; also recorded: non-aggregative	–	–	–
VQVIYK [12p]	–	amyloid	fibrillar structures	Twisting of at least four filaments	Reversion of structures after dilution, in words [6]: almost total reversion; Diameter, Tight [3]: 7 nm; Diameter, Wide [3]: 15 nm; Pitch length [3]: 177 ± 26 nm; Structure (TEM) ([3]; listed as 12p*): Twisted Stringy filaments/fibers
VQVKYI [21p]	–	amyloid; also recorded: amyloidogenic character	globular/ovoid structures	Variable size / aggregates	Reversion of structures after dilution, in words [6]: almost total reversion; Diameter [3]: 25 ± 6 nm; Structure (TEM) ([3]; listed as 21p*): Globular/ovoid
VQVYKI [22p]	–	aggregative; also recorded: soluble	fibrillar structures; also recorded: Twisted ribbons bundles/fibers	Highly heterogeneous	–
VVQKYI [6p]	very weak	entirely soluble; also recorded: non-aggregative	–	–	–
YIVVQK [13p]	no	entirely soluble	–	–	–
YQVIVK [17p]	–	aggregative	structures resembling ribbons	Flat/short tangled, heterogeneous	Amyloidogenicity by Thioflavin T fluorescence, in words [7]: without fluorescence; Width [3]: 14 ± 2 nm
YQVKIV [16p]	strong aggregation	strong aggregation potential	structures resembling ribbons; also recorded: Rather ribbons	Very homogeneous, perpendicular breaks	Aggregation Threshold ([1]; 16p studied at ~290 μM (288 μM) due to poor solubility in water): 17 µM; Amyloidogenicity by Thioflavin T fluorescence, in words [7]: not amyloidogenic; Pitch length [3]: 44 ± 4 nm; Width [3]: 22±3 nm; Solubility in water, in words [8]: poor solubility in water; Solubility in water, in words ([8]; listed as 16p*): low solubility in water
